Several values for one entry are separate records, joined by “and”; a condition that tells them apart may be missing. Identical values can stand only once.
Assays:
[1] = test system: Kuming mice; format: in vivo, mouse; details: for effect on writhing responses (in words): n = 8; for number of abdominal contortions: mouse, in vivo
[2] = test system: female Kuming mice; details: mouse, in vivo
[3] = test system: Kuming mice; details: mouse, in vivo; for edematogenic response after subcutaneous peptide (in words): sc
[4] = test system: NMDAR; details: cited from earlier work
[5] = test system: NMDAR; details: cited from earlier work; remark: listed apart in the source
[6] = test system: female mice; format: in vivo, mouse; details: for paw withdrawal latency as % of pre-administration values: mouse, in vivo
[7] = test system: Kuming mice; format: in vivo, mouse; details: for first phase response of the formalin test (in words) / second phase response of the formalin test (in words): n = 8; for paw biting/licking behaviors after subcutaneous peptide (in words): mouse, in vivo, sc
[8] = test system: Kuming mice; details: mouse, in vivo
[9] = test system: mice; details: mouse, in vivo
[10] = test system: mice; details: mouse, in vivo; cited from earlier work
[11] = in vivo; cited from earlier work

| Substance | effect on writhing responses (in words) [1] | Paw withdrawal latency after peptide administration, 30 min [2] | Paw withdrawal latency after peptide administration, 90 min [2] | Paw withdrawal latency after peptide administration, 150 min [2] | Paw withdrawal latency after peptide administration, 240 min [2] | Paw withdrawal latency before peptide administration [2] | antinociception in the hot-plate test (in words) [2] | Increase in paw width [3] [mm] | Injected paw width, after formalin injection [3] [mm] | Injected paw width, before formalin injection [3] [mm] | IC50 [5] [nM] | first phase response of the formalin test (in words) [7] | second phase response of the formalin test (in words) [7] | further results |
| --- | --- | --- | --- | --- | --- | --- | --- | --- | --- | --- | --- | --- | --- | --- |
| GEγγLGKAQALIRAAYA-NH2 [Ala-con-G] | failed to attenuate writhing responses | 20.3 ± 8.6 s and 11.9 ± 3.4 s | 20.9 ± 5.7 s and 22.4 ± 9.5 s | 24.6 ± 10.4 s and 17.1 ± 7.5 s | 16.1 ± 5.0 s and 20.0 ± 16.1 s | 15.3 ± 3.0 s and 11.3 ± 1.9 s | ineffective at antinociception at all time points examined | 0.97 ± 0.05 | 2.56 ± 0.05 | 1.60 ± 0.02 | 180 | significantly reduced the time spent responding to the afflicted paw | neither Ala-con-G nor con-R[1-17] provided antinociception | components of binding to adult rat brain sections (in words) [4]: only the high-affinity NMDAR-specific component of binding; effect on withdrawal latencies in the CFA model (in words) ([6]; n = 8): failed to alter withdrawal latencies |
| GEγγLQKNQγLIRγKSN-NH2 [con-G[γ7K]] | failed to attenuate writhing responses | 11.9 ± 4.3 s and 21.5 ± 12.5 s | – | – | – | 14.9 ± 3.5 s and 15.1 ± 3.9 s | – | – | – | – | 220 | significantly reduced the time spent responding to the afflicted paw | – | – |
| GEγγLQγNQγLIRAKSN-NH2 [con-G[γ14A]] | – | 10.0 ± 3.3 s | 20.4 ± 14.2 s | ^ˆ25.4 ± 9.3 s | ^ˆ22.8 ± 8.6 s | 11.3 ± 1.5 s | ineffective at antinociception at all time points examined | – | – | – | 230 | – | – | – |
| GEγγLQγNQγLIRAKYN-NH2 [con-G[S16Y]] | significantly effective in modulating responses to the acid stimulus | – | – | – | – | 13.4 ± 3.1 s and 9.0 ± 2.1 s | highest antinociceptive activity | 0.76 ± 0.05 | 2.33 ± 0.05 | 1.57 ± 0.03 | 140 | significantly reduced the time spent responding to the afflicted paw | highly effective in reducing the responses to the afflicted paw | number of abdominal contortions [1]: 6.4 ± 4.6; edematogenic response after subcutaneous peptide (in words) [3]: nor did they reduce the edematogenic response; day 3 paw diameter after peptide injection [8]: 2.26 ± 0.058 mm; day 3 paw diameter before peptide injection [8]: 2.36 ± 0.039 mm; share of peptide associated with a low-affinity, non-receptor site [4]: approximately 80%; increase in potency in the [3H]MK-801 binding assay compared to con-G [5]: 3.5 fold; motor impairment in the rotarod test, comparison of the two peptides (in words) [9]: reverse effect; motor toxicity in the rotarod test relative to saline (in words) [9]: some toxicity; rotarod stay time, 60 min versus 240 min test times (in words) [9]: no significant differences; paw withdrawal latency as % of pre-administration values [6]: 80%; increase of paw withdrawal latency compared to the day 3 controls ([6]; n = 8): ~2 s; paw biting/licking behaviors after subcutaneous peptide (in words) [7]: did not significantly diminish paw biting/licking behaviors |
| con-G[N8A]: NR2B-selective con-G variant (GEEELQEAQELIREKSN; not fully specified; Conantokin-G; UniProt P07231 81-97, looked up, variant N8A) | – | 11.6 ± 4.2 s | 13.5 ± 4.8 s | 12.6 ± 2.5 s | 13.8 ± 3.1 s | 11.1 ± 2.5 s | ineffective at antinociception at all time points examined | – | – | – | 490 | – | – | – |
| conantokin-G [con-G] | – | 12.2 ± 4.5 s and 12.6 ± 12.5 s | – | – | – | 11.6 ± 2.1 s and 11.6 ± 2.5 s | – | 0.83 ± 0.03 | 2.38 ± 0.03 | 1.55 ± 0.02 | 480 | significantly reduced the time spent responding to the afflicted paw | highly effective in reducing the responses to the afflicted paw | percent inhibition of responses, first phase of the formalin test [10]: 25-35%; number of abdominal contortions [1]: 8.3 ± 6.0; edematogenic response after subcutaneous peptide (in words) [3]: nor did they reduce the edematogenic response; median toxic dose, rotarod test [11]: ca. 300 pmol; paw withdrawal latency as % of pre-administration values [6]: 80%; increase of paw withdrawal latency compared to the day 3 controls ([6]; n = 8): approximately 1 s; paw biting/licking behaviors after subcutaneous peptide (in words) [7]: did not significantly diminish paw biting/licking behaviors |
| conantokin-T [con-T] | – | 13.1 ± 3.1 s | 15.4 ± 4.8 s | 16.5 ± 4.6 s | 16.8 ± 4.5 s | 11.9 ± 2.9 s | without effect | – | – | – | 400 | – | – | percent inhibition of responses, first phase of the formalin test [10]: 25-35%; median toxic dose, rotarod test [11]: ca. 300 pmol |

Reference: paper PMC2621068 (Neuropeptides, 2008)
